Test results as given in patent publication US20150315188A1, “COMPOUNDS AND METHODS FOR TREATMENT OF HYPERTENSION” (MEDIVATION TECHNOLOGIES, INC., priority 2012, published 2015).
Several values for one entry are separate records, joined by “and”; a condition that tells them apart may be missing. Equal values may be shown once.

Tests used:
Parameters in all cases: purchased Milipore (Millipore)
[1] = biological target: T1, Human adrenergic α1B receptor (Homo sapiens, UniProt P35368); assay: Radioligand binding, adrenergic α1B (Protocol Group B); details: Protocol Group B; for Percentage inhibition of ligand binding, Adrenergic α1B (0.1 μM) / inhibition at 0.1 µM: 0.1 μM compound; for inhibition at 0.3 µM / Percentage inhibition of ligand binding, Adrenergic α1B (0.3 μM): 0.3 μM compound; for inhibition at 0.3 µM: read-out: Percentage inhibition of ligand binding, Adrenergic α1B (0.3 μM); for inhibition at 0.1 µM: read-out: Percentage inhibition of ligand binding, Adrenergic α1B (0.1 μM)
T1 sequence (P35368 1-520): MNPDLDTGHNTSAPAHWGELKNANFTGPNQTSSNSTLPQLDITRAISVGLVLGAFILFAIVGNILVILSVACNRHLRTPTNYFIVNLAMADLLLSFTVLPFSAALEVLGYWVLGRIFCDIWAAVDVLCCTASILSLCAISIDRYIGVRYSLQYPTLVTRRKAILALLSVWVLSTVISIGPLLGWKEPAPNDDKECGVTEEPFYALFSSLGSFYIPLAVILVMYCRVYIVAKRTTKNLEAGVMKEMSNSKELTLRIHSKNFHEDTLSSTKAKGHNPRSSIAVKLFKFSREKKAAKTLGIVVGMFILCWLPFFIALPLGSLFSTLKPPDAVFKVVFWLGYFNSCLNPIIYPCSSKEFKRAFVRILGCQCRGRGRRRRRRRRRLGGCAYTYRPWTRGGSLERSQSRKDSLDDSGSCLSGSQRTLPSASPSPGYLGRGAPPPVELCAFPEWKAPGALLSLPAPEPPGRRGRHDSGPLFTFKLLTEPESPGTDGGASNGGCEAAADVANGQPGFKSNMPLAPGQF
How it was run: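 Values are percent inhibition of specific [3H]prazosin (0.3 nM) binding or estimated Ki, from filtration counting. Human α1B recombinant membranes, Tris-HCl pH 7.4 buffer with MgCl2 and EDTA, 60 min at 25 °C, 1% DMSO vehicle; 10 μM prazosin defined nonspecific binding.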

[2] = biological target: T2, Human adrenergic α2B receptor (Homo sapiens, UniProt P18089); assay: Radioligand binding, adrenergic α2B (Protocol Group B); details: Protocol Group B; for Percentage inhibition of ligand binding, Adrenergic α2B (10 nM) / inhibition at 0.01 µM: 10 nM compound; for Percentage inhibition of ligand binding, Adrenergic α2B (10 nM): 0.01 µM; for Percentage inhibition of ligand binding, Adrenergic α2B (30 nM) / inhibition at 0.03 µM: 30 nM compound; for Percentage inhibition of ligand binding, Adrenergic α2B (30 nM): 0.03 µM; for Percentage inhibition of ligand binding, Adrenergic α2B (0.1 μM) / inhibition at 0.1 µM: 0.1 μM compound; for inhibition at 0.01 µM: read-out: Percentage inhibition of ligand binding, Adrenergic α2B (10 nM); for inhibition at 0.03 µM: read-out: Percentage inhibition of ligand binding, Adrenergic α2B (30 nM); for inhibition at 0.1 µM: read-out: Percentage inhibition of ligand binding, Adrenergic α2B (0.1 μM)
T2 sequence (P18089 1-450): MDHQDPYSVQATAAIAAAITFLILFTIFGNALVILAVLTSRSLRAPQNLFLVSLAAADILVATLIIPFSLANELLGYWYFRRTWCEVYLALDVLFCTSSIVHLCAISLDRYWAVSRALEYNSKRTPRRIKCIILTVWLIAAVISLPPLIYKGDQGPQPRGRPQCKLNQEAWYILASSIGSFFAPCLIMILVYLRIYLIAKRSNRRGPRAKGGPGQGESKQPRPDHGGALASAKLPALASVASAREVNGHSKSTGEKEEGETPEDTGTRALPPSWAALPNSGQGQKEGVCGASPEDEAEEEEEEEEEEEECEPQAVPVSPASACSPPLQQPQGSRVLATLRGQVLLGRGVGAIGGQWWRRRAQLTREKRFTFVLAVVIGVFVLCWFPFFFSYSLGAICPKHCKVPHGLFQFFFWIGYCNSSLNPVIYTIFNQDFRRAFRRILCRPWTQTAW
How it was run: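 Compounds at various concentrations in 1% DMSO were tested on recombinant membranes in Tris-HCl pH 7.4 buffer containing MgCl2, CaCl2 and 0.2% BSA.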

[3] = biological target: T3, Human adrenergic α2A receptor (Homo sapiens, UniProt P08913); assay: Radioligand binding, adrenergic α2A (Protocol Group B); details: Protocol Group B; for Percentage inhibition of ligand binding, Adrenergic α2A (0.1 μM) / inhibition at 0.1 µM: 0.1 μM compound; for inhibition at 0.3 µM / Percentage inhibition of ligand binding, Adrenergic α2A (0.3 μM): 0.3 μM compound; for inhibition at 0.3 µM: read-out: Percentage inhibition of ligand binding, Adrenergic α2A (0.3 μM); for inhibition at 0.1 µM: read-out: Percentage inhibition of ligand binding, Adrenergic α2A (0.1 μM)
T3 sequence (P08913 1-465): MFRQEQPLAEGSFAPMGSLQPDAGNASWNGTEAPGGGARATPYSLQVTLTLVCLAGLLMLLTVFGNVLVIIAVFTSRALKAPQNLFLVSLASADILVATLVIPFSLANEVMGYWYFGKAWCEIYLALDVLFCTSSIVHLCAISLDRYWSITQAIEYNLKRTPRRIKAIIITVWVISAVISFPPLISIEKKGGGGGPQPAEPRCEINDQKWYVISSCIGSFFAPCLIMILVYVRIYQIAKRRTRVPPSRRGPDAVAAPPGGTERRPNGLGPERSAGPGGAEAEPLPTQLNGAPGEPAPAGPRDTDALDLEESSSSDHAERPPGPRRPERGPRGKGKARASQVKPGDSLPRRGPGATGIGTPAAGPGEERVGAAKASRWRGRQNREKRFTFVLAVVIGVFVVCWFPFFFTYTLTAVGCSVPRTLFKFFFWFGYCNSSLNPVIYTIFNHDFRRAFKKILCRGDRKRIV
How it was run: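 Compounds (1% DMSO vehicle, various concentrations) competed against 2 nM [^3H]MK-912 on recombinant receptor membranes for 60 min at 25° C, Tris-HCl pH 7.4 buffer with Mg2+, Ca2+, BSA. Bound radioligand filtered and counted; 10 μM rauwolscine set nonspecific binding. Values: percent inhibition of specific binding or estimated Ki.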

| SMILES | Percentage inhibition of ligand binding, Adrenergic α1B (0.1 μM) [1] [%] | inhibition at 0.3 µM [1] [%] | Percentage inhibition of ligand binding, Adrenergic α2B (10 nM) [2] [%] | Percentage inhibition of ligand binding, Adrenergic α2B (30 nM) [2] | Percentage inhibition of ligand binding, Adrenergic α2B (0.1 μM) [2] [%] | Percentage inhibition of ligand binding, Adrenergic α2A (0.1 μM) [3] [%] | inhibition at 0.3 µM [3] [%] | Percentage inhibition of ligand binding, Adrenergic α1B (0.3 μM) [1] [%] | Percentage inhibition of ligand binding, Adrenergic α2A (0.3 μM) ([3]; 0.3 µM) [%] | inhibition at 0.1 µM [1] [%] | inhibition at 0.01 µM [2] [%] | inhibition at 0.03 µM [2] [%] | inhibition at 0.1 µM [2] [%] | inhibition at 0.1 µM [3] [%] | Percentage inhibition of ligand binding, Adrenergic α2A (0.3 μM) [3] [%] |
| --- | --- | --- | --- | --- | --- | --- | --- | --- | --- | --- | --- | --- | --- | --- | --- |
| Cc1ccc2c(c1)c1c(n2CC(C)(O)c2cccnc2)CCN(C)C1CO (single isomer, unassigned) [16a] | 16 | 9 | −1 | −14% | 1 | 8 | 9 | – | – | – | – | – | – | – | – |
| Cc1cc(F)cc2c3c(n(CC(C)(O)c4ccncc4)c12)CC1CCCN1C3 (single isomer, unassigned) [78c] | −11 | – | 20 | 33% | – | 3 | – | −2 | −1 | – | – | – | – | – | – |
| OC(Cn1c2c(c3cc(F)ccc31)C1CCCN1CC2)c1ccncc1 (single isomer, unassigned) [18d] | 15 | – | 11 | 32% and 36% | 79 | 8 | – | 24 | 20 | – | – | – | – | – | – |
| Cc1cc2c3c(n(CC(O)c4ccncc4)c2cc1Cl)CCN1CCCC31 (stereo not shown) [compound 21, 2-(8-chloro-9-methyl-1,2,3,4,5,10c-hexahydro-3a, 6-diaza-cyclopenta[c]fluoren-6-yl)-1-pyridin-4-yl-ethanol] | – | 95 | – | – | – | – | 89 | – | – | 84 | 85 | 96 | 96 | 78 | – |
| OC(Cn1c2c(c3cc(F)cc(F)c31)C1CCCN1CC2)c1ccncc1 (single isomer, unassigned) [144c] | −2 | – | – | −12% | – | 1 | – | – | – | – | – | – | – | – | – |
| Cc1ccc2c(c1)c1c(n2CC(C)(O)c2ccc(N(C)C)nc2)CCN(C)C1 (single isomer, unassigned) [39a] | 15 | – | 15 | 38% | 62 | 12 | – | 36 | 26 | – | – | – | – | – | – |
| CC(O)(Cn1c2c(c3cc(F)ccc31)C1CCCN1CC2)c1cccnc1 (stereo not shown) [57a] | −4 | – | −7 | 0% | 14 | −12 | – | −4 | −11 | – | – | – | – | – | – |
| Cc1cc(Cl)c2c(c1)c1c(n2CC(C)(O)c2ccncc2)CCN2CCCC12 (single isomer, unassigned) [91c] | −20 | – | −16 | −4% | – | −14 | – | −7 | −3 | – | – | – | – | – | – |
| Cc1ccc2c(c1)c1c(n2CC(O)c2ccncc2)CN(C)C2CCCC12 (single isomer, unassigned) [36b] | 0 | – | −19 | −14% | −10 | −7 | – | 5 | – | – | – | – | – | – | −5 |
| Cc1ccc2c(c1)c1c(n2CC(O)c2ccncc2F)CCN2CCCC12 (stereo not shown) [compound 14, 1-(3-fluoropyridin-4-yl)-2-(10-methyl-2,3,5,6-tetrahydro-1H-indolizino[7,8-b]indol-7 (11cH)-yl)ethanol] | – | 90 | – | – | – | – | 87 | – | – | 74 | 81 | 99 | 101 | 71 | – |
| Cc1ccc2c(c1)c1c(n2CC(C)(O)c2cccnc2)CC2CCC1N2C (single isomer, unassigned) [101c] | 12 | – | 7 | 5% | 16 | 6 | – | 7 | 7 | – | – | – | – | – | – |
| Cc1cc2c3c(n(CC(C)(O)c4ccncc4)c2cc1Cl)CCN1CCCC31 (single isomer, unassigned) [50c] | 19 | – | 15 | 42% | 91 | 22 | – | 43 | 49 | – | – | – | – | – | – |
| Cc1cc(C)c2c(c1)c1c(n2CC(C)(O)c2ccncc2)CCN2CCCC12 (single isomer, unassigned) [19c] | −5 | – | −13 | −12% | 6 | −7 | – | −1 | 1 | – | – | – | – | – | – |
